Results published in US9956181B2, “Composition of nanoformulated lycopene and method of using the composition” (priority 2015, dated 2018).

Key:
[1] = test system: ovariectomized (OVX) rats; assay: OVX rat study: dynamic bone histomorphometry of tibial metaphysis and diaphysis; assay type: in vivo, Wistar rats; conditions: ALN group, tibial diaphysis, for the most part
Method: (§1) A total of 264 Wistar female rats, ˜6 months old, were supplied by the Animal House at King Fahd Medical Research Center (KFMRC), KAU. Rats were housed in individual cages and maintained at 22° C. with a 12-h light/dark cycle. During the study period, rats were given standard rodent chow diet ad libitum (commercial rat cubes containing approximately 18% protein, 3% fat, 77% carbohydrate, and 2% of an inorganic-salt mixture with a vitamin supplement by weight, supplied by Grain Silos and Flour Mills Organization, Jeddah, Saudi Arabia) and water until the onset of intervention. Prior to surgery, rats were anesthetized with ketamine [(10% ketamine hydrochloride (80 mg/kg body weight), Cayman Chemical, Michigan, USA] and xylazine [(2% xylazine hydrochloride, 10 mg/kg body weight), Sigma-Aldrich Co., St. Louis, USA]. A single longitudinal skin incision was made on the dorsal midline at the level of the kidneys and both ovaries were ligated and removed to produce an ovariectomy in all OVX group animals. A SHAM-operated group, acting as a negative control for the effect of ovariectomy on bone parameters, underwent bilateral laparotomy, during which the ovaries were exposed but remained intact. […] The lycopene-supplemented groups were given lycopene (15, 30 and 45 mg/kg body weight per day) dissolved in corn oil by daily intra-gastric administration for the experimental period of 12 weeks. The SHAM, OVX and ALN control groups were given the same volume of corn oil without lycopene treatment. […] A 12-week randomized placebo-controlled study in order to examine the protective effects of lycopene supplementation on bone mass and fragility in OVX rats was concluded. Prior to surgery, body weight and bone mineral density (BMD) were obtained for all animals. Rats were randomized using a computer-generated randomization code into one of six groups: (1) sham-operated (SHAM; n=44); (2) ovariectomized control (OVX; n=44); (3) OVX lycopene-supplemented (15 mg/kg body weight per day) (n=44); (4) OVX lycopene-supplemented (30 mg/kg body weight per day) (n=44); (5) OVX lycopene-supplemented (45 mg/kg body weight per day) (n=44) and (6) OVX alendronate-treated (ALN) [2.0 μg/kg body weight per day subcutaneously (sc)] (n=44). Alendronate is an anti-resorptive agent for the treatment of osteoporosis and was used as a positive therapy control. […] All OVX groups were pair-fed with the SHAM group throughout the study to avoid the possible effects of ovariectomy-induced over-consumption and subsequent excessive weight gain. Treatment started 1 week after the surgery: this period of rest allowed the rats to recover from the stress associated with the surgery. In addition, after surgery, rats were administered Diclofenac sodium injection (20 mg/Kg body weight) to reduce the pain associated with the surgery. Rats were weighed and examined daily. Blood and urine samples were collected at baseline, during, and at the end of treatment for measurement of various BTMs and other analytes. In vivo dual energy x-ray absorptiometry (DXA) measurements were made for the bone mineral content (BMC) and BMD of the whole body, lumbar spine (L1-L4), and the right humerus, together with body composition at 12 weeks of treatment. One day following the post-test DXA assessments (at 12 weeks, 16 rats in each group), animals were euthanized by decapitation and right and left femurs were extracted for further biomechanical and histomorphometric analyses. Blood and urine samples were collected from all experimental groups to measure biochemical analytes and BTMs at baseline and 4, 8, and 12 weeks of treatment. Peripheral Quantitative CT (pQCT) scans were made of the proximal tibia metaphysis and the diaphysis. In vivo micro-computed tomographic (μCT) scans of the proximal tibia were obtained during the treatment period to monitor changes in bone mass and microarchitecture. […]

[2] = test system: ovariectomized (OVX) rats; assay: OVX rat study: serum minerals, enzymes and hormones; assay type: in vivo, Wistar rats; conditions: OVX rats; lycopene 45 mg/kg/day; ALN 2.0 μg/kg/day sc; P<0.001
Method: as §1, with “In addition, after surgery, rats were administered Diclofenac sodium injection (20 mg/Kg body weight) to reduce the pain associated with the surgery. Rats were weighed and examined daily. Blood and urine samples were collected at baseline, during, and at the end of treatment for measurement of various BTMs and other analytes. In vivo dual energy x-ray absorptiometry (DXA) measurements were made for the bone mineral content (BMC) and BMD of the whole body, lumbar spine (L1-L4), and the right humerus, together with body composition at 12 weeks of treatment. One day following the post-test DXA assessments (at 12 weeks, 16 rats in each group), animals were euthanized by decapitation and right and left femurs were extracted for further biomechanical and histomorphometric analyses. Blood and urine samples were collected from all experimental groups to measure biochemical analytes and BTMs at baseline and 4, 8, and 12 weeks of treatment.” left out, “diaphysis.” for “diaphysis. In vivo micro-computed tomographic (μCT) scans of the proximal tibia were obtained during the treatment period to monitor changes in bone mass and microarchitecture.”

[3] = test system: ovariectomized (OVX) rats; assay: OVX rat study: in vivo DXA densitometry of lumbar spine and humerus; parameters: species or system Wistar rats; conditions: 12 weeks, versus OVX control
Method: (§2) A total of 264 Wistar female rats, ˜6 months old, were supplied by the Animal House at King Fahd Medical Research Center (KFMRC), KAU. Rats were housed in individual cages and maintained at 22° C. with a 12-h light/dark cycle. During the study period, rats were given standard rodent chow diet ad libitum (commercial rat cubes containing approximately 18% protein, 3% fat, 77% carbohydrate, and 2% of an inorganic-salt mixture with a vitamin supplement by weight, supplied by Grain Silos and Flour Mills Organization, Jeddah, Saudi Arabia) and water until the onset of intervention. Prior to surgery, rats were anesthetized with ketamine [(10% ketamine hydrochloride (80 mg/kg body weight), Cayman Chemical, Michigan, USA] and xylazine [(2% xylazine hydrochloride, 10 mg/kg body weight), Sigma-Aldrich Co., St. Louis, USA]. A single longitudinal skin incision was made on the dorsal midline at the level of the kidneys and both ovaries were ligated and removed to produce an ovariectomy in all OVX group animals. A SHAM-operated group, acting as a negative control for the effect of ovariectomy on bone parameters, underwent bilateral laparotomy, during which the ovaries were exposed but remained intact. […] Peripheral Quantitative CT (pQCT) scans were made of the proximal tibia metaphysis and the diaphysis. […]

[4] = test system: ovariectomized (OVX) rats; assay: OVX rat study: ex vivo μCT analysis of tibial metaphysis and femur diaphysis; assay type: in vivo, Wistar rats
Method: as §1

[5] = test system: ovariectomized (OVX) rats; assay: OVX rat study: ex vivo pQCT and biomechanical testing of lumbar spine and femur; assay type: in vivo, Wistar rats; conditions: 12 weeks
Method: as §1, with “One day following the post-test DXA assessments (at 12 weeks, 16 rats in each group), animals were euthanized by decapitation and right and left femurs were extracted for further biomechanical and histomorphometric analyses. Blood and urine samples were collected from all experimental groups to measure biochemical analytes and BTMs at baseline and 4, 8, and 12 weeks of treatment.” left out, “diaphysis.” for “diaphysis. In vivo micro-computed tomographic (μCT) scans of the proximal tibia were obtained during the treatment period to monitor changes in bone mass and microarchitecture.”

[6] = test system: ovariectomized (OVX) rats; assay: OVX rat study: in vivo pQCT densitometry of tibia metaphysis; parameters: species or system Wistar rats; conditions: 12 weeks, versus OVX control, P<0.001
Method: as §2

[7] = test system: ovariectomized (OVX) rats; assay: OVX rat study: biochemical bone turnover markers; assay type: in vivo, Wistar rats; conditions: ALN 2.0 μg/kg/day sc
Method: as §1, with “In addition, after surgery, rats were administered Diclofenac sodium injection (20 mg/Kg body weight) to reduce the pain associated with the surgery. Rats were weighed and examined daily. Blood and urine samples were collected at baseline, during, and at the end of treatment for measurement of various BTMs and other analytes. In vivo dual energy x-ray absorptiometry (DXA) measurements were made for the bone mineral content (BMC) and BMD of the whole body, lumbar spine (L1-L4), and the right humerus, together with body composition at 12 weeks of treatment. One day following the post-test DXA assessments (at 12 weeks, 16 rats in each group), animals were euthanized by decapitation and right and left femurs were extracted for further biomechanical and histomorphometric analyses. Blood and urine samples were collected from all experimental groups to measure biochemical analytes and BTMs at baseline and 4, 8, and 12 weeks of treatment.” left out, “diaphysis.” for “diaphysis. In vivo micro-computed tomographic (μCT) scans of the proximal tibia were obtained during the treatment period to monitor changes in bone mass and microarchitecture.”

[8] = 12 weeks, lycopene, ALN 2.0 μg/kg/day, P<0.001

NCCCC(O)(P(=O)(O)O)P(=O)(O)O [ALN, alendronate, reference compound]
OVX-induced effects on cortical bone indices [1]: also prevented
serum PTH values versus other groups [2]: significantly higher
OVX-induced bone loss (BMC and BMD, lumbar spine and humerus, DXA) [3]: prevented
decrease in Tb.Sp, tibia metaphysis (μCT), compared with OVX group [4, 8]: 37.3%
increase in BV/TV, tibia metaphysis (μCT), compared with OVX group [4, 8]: 128.9%
increase in Tb.N, tibia metaphysis (μCT), compared with OVX group [4, 8]: 25.8%
relative bone volume (BV/TV) of the femur diaphysis (μCT) ([4]; OVX rats, 12 weeks): nor lycopene or ALN treatment had significant effects
femoral cortical values for Ct.Th and Ct.Po (μCT) ([4]; lycopene 30 and 45 mg/kg/day, ALN, versus SHAM and OVX groups): improved
OVX-induced decrease in cortical thickness ([5]; lycopene particularly 45 mg/kg/day, alendronate 2.0 μg/kg/day): prevented
lumbar spine biomechanical / bone strength parameters ([5]; lycopene particularly 30 and 45 mg/kg/day, ALN 2.0 μg/kg/day, P<0.05): significantly increased
OVX-induced bone loss (total and trabecular BMD, proximal tibia, pQCT) [6]: prevented
OVX-induced increases in s-CTX and u-DPD levels ([7]; P<0.001): prevented
s-OC and s-PINP levels compared with OVX control ([7]; week 12, P<0.001): significantly decreased
